From US12391698B2, “Substituted piperidines and piperazines and methods for the treatment of CNS disorders” (SUVEN LIFE SCIENCES LIMITED, priority 2022, dated 2025)
Counter-ions that a name gives are not always drawn. Like-named read-outs stand apart in the source and are kept apart here.

Tests used:
[1] = biological target: cloned human SERT receptor (Homo sapiens, UniProt P31645); assay: Determination of Ki at SERT receptor (SPA binding, [3H]-Citalopram); details: HEK293 recombinant cells, [3H]-Citalopram 2 nM
Summary of the method: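 HEK293-expressed human SERT; [3H]-citalopram at 2 nM final, nonspecific binding with 0.1 mM venlafaxine. Incubated 3 h at r.t. in 50 mM Tris-HCl pH 7.4, 150 mM NaCl, 5 mM KCl with SPA beads. Bead-proximal radioactivity compared with control values.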

[2] = biological target: T1, hD2S (cloned human dopamine D2S receptor) (Homo sapiens, UniProt P14416); assay: Determination of Ki at D2S receptor (radioligand binding, [3H]-Raclopride); details: CHO-K1 recombinant cells, [3H]-Raclopride 4 nM
T1 construct: expressed in transfected cells; host or cells: CHO-K1
Summary of the method: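 Displacement of 4 nM [3H]-Raclopride from membranes of CHO-K1 cells expressing the receptor, 2 h at r.t. in 50 mM Tris-HCl pH 7.4 with 120 mM NaCl, 5 mM KCl, 5 mM MgCl2, 1 mM EDTA. Non-specific binding defined with 0.1 mM haloperidol; filter-bound radioactivity compared with control.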

[3] = biological target: T2, cloned human 5-HT1A receptor (Homo sapiens, UniProt P08908); assay: Determination of Ki at 5-HT1A receptor (radioligand binding, [3H]-8-Hydroxy DPAT); details: HEK293-EBNA recombinant cells, [3H]-8-Hydroxy DPAT 0.8 nM
T2 construct: expressed in transfected cells; host or cells: HEK293-EBNA
T2 sequence (P08908 1-422): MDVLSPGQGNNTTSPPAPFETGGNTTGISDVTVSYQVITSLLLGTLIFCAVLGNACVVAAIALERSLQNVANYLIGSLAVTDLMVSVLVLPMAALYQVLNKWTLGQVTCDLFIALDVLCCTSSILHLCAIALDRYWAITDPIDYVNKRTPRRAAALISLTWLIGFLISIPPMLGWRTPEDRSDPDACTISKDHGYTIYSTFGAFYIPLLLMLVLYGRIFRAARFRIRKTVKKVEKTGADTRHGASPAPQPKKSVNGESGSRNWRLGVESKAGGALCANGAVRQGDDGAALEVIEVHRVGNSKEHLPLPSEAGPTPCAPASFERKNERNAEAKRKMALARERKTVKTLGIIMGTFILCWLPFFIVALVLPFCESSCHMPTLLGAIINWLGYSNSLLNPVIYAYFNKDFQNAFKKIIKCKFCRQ
Summary of the method: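 Membranes from HEK293-EBNA cells expressing recombinant human 5-HT1A were incubated with 0.8 nM [3H]-8-hydroxy-DPAT for 2 h at r.t. in pH 7.4 Tris-HCl buffer with EDTA, MgSO4 and ascorbic acid. Non-specific binding was defined with 0.1 mM U92016A; bound radioactivity after filtration was compared with controls.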

[4] = biological target: T3, recombinant rat 5-HT7 receptor (Rattus norvegicus, UniProt P32305); assay: Determination of Kb at 5-HT7 receptor, pCRE-Luc reporter gene assay in CHO cells; format: cell-based
T3 construct: expressed in transfected cells

[5] = biological target: T3, recombinant rat 5-HT7 receptor; assay: as above; format: cell-based; details: for antagonistic activity at rat recombinant 5-HT7 receptor: pCRE-Luc reporter gene assay
Protocol: A stable CHO cell line expressing recombinant rat 5-HT7 receptor and pCRE-Luc reporter system was used for cell-based assay. The assay offers a non-radioactive based approach to determine binding of a compound to GPCRs. In this specific assay, the level of intracellular cAMP which is modulated by activation or inhibition of the receptor is measured. The recombinant cells harbor luciferase reporter gene under the control of cAMP response element.
The above cells were grown in 96 well clear bottom white plates in Hams F12 medium containing 10% fetal bovine serum (FBS). Prior to the addition of compounds or standard agonist, cells were serum starved overnight. Increasing concentrations of test compound were added along with 1 μM of serotonin in Opti-MEM medium to the cells. The incubation was continued at 37° C. in CO2 incubator for 4 hours. Medium was removed and cells were washed with phosphate buffered saline. The cells were lysed and luciferase activity was measured in a Luminometer. Luminescence units were plotted against the compound concentrations using GraphPad Prism software. EC50 values of the compounds were defined as the concentration required in reducing the luciferase activity by 50%. The Kb values were calculated by feeding the concentration of agonist used in the assay and its EC50 value in the same software.

[6] = Rodent brain penetration study; format: in vivo; details: rat, po, fed male Wistar rats, 3 mg/kg p.o., mean ± S.D, n = 3, read-out: Rat Brain Penetration (Cbrain/Cplasma) at 3 mg/kg, p.o. @ 1 h
Protocol: Male Wistar rats (260±40 g) were used as experimental animals. Three animals were housed in each cage. Animals were given water and food ad libitum throughout the experiment and maintained on a 12 h light/dark cycle.
Brain penetration was determined in discrete manner in rats. One day prior to dosing, male Wistar rats were acclimatized and randomly grouped according to their body weight. At each time point (0.50, 1 and 2 h), n=3 animals were used.
The test compounds were suitably preformulated and administered orally at (free base equivalent) 3 mg/kg. Blood samples were removed via cardiac puncture under isoflurane anesthesia. The animals were sacrificed to collect brain tissue. Plasma was separated and brain samples were homogenized. Plasma and brain homogenates were stored frozen at −20° C. until analysis. The concentrations of the test compounds in plasma and brain were determined using LC-MS/MS method.
The test compounds were quantified in plasma and brain homogenate by qualified LC-MS/MS method using suitable extraction technique in the calibration range of 1-500 ng/mL. Study samples were analyzed using calibration samples in the batch and quality control samples spread across the batch. Extent of brain-plasma ratio (Cbrain/Cplasma) was calculated.

[7] = rat receptor, with 1 μM serotonin, luciferase readout, read-out: Kb at 5-HT7 receptor

Chain of cloned human SERT receptor (P31645 whole entry): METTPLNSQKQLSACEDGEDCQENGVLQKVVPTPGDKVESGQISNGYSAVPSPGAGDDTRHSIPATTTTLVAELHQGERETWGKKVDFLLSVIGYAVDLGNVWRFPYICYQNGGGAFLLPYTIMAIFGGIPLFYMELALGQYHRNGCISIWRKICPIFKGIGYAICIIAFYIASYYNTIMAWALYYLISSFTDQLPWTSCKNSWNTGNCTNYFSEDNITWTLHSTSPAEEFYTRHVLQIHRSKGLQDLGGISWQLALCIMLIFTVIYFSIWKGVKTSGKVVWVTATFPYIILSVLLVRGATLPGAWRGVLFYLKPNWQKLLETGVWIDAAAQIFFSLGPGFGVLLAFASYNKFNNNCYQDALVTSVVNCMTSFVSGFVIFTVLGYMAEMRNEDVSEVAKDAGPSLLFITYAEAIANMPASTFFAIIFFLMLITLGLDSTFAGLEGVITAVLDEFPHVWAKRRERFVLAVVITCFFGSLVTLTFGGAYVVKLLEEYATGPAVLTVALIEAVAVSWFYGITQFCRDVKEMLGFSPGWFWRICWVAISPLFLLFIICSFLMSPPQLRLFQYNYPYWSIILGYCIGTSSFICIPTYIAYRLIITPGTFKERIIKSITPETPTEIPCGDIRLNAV
T1 sequence (P14416 1-414 isoform P14416-2): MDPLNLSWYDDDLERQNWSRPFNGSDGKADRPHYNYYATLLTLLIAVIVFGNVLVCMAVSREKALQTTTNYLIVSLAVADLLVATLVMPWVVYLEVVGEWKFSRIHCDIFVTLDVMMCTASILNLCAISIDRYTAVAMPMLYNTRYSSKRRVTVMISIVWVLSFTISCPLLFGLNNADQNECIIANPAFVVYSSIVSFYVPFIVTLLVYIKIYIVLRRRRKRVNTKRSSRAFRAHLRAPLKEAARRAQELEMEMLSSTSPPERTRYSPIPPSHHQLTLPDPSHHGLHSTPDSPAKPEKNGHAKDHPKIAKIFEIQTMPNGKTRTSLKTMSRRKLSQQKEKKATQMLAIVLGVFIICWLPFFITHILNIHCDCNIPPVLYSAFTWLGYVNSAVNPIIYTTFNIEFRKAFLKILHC
T3 sequence (P32305 whole entry): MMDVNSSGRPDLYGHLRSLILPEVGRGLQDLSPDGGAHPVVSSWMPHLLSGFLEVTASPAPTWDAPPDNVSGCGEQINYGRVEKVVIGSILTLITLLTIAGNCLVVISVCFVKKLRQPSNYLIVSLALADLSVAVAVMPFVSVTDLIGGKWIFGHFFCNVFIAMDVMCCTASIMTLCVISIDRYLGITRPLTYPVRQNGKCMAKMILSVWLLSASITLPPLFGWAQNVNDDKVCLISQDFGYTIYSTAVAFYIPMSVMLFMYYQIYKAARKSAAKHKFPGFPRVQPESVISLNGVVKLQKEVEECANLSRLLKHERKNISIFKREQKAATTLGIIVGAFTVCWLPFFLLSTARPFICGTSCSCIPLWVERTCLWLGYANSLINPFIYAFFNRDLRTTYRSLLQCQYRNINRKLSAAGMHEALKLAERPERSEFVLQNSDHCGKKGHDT

Compound	Ki ([1]; Ki hSERT) [nM]	Ki ([2]; Ki hD2S) [nM]	Ki ([3]; Ki h5-HT1A) [nM]	agonist activity at rat recombinant 5-HT7 receptor [4]	Kb [5] [nM]	antagonistic activity at rat recombinant 5-HT7 receptor [5]	Kp at 1 h ([6]; in vivo)	Ki ([1]; read-out: Ki hSERT) [nM]	Ki ([2]; read-out: Ki hD2S) [nM]	Ki ([3]; read-out: Ki h5-HT1A) [nM]	Kb [5, 7] [nM]	Kp at 1 h ([6]; brain/plasma)
O=C1C[C@@H]2C[C@H]3C[C@H]3N2C(=O)N1CCCCN1CCN(c2nsc3ccccc23)CC1 [Example 11, 3-[4-(4-Benzo[d]isothiazol-3-yl-piperazin-1-yl)-butyl]-hexahydro-1b,3-diaza-cyclopropa[a]indene-2,4-dione oxalate]	1280	0.62	0.29	no detectable agonist activity	0.17	antagonistic activity	0.09 ± 0.16	–	–	–	–	–
O=C1C[C@@H]2C[C@H](F)CN2C(=O)N1CCCCN1CCN(c2nsc3ccccc23)CC1 [Example 9, 2-[4-(4-Benzo[d]isothiazol-3-yl-piperazin-1-yl)-butyl]-6-fluoro-tetrahydro-pyrrolo[1,2-c]pyrimidine-1,3-dione oxalate]	–	–	–	no detectable agonist activity	–	antagonistic activity	–	833	2.78	0.89	0.7	0.4 ± 0.13
O=C1C[C@@H]2CCCN2C(=O)N1CCCCN1CCN(c2nsc3ccccc23)CC1 [Example 2, 2-[4-(4-Benzo[d]isothiazol-3-yl-piperazin-1-yl)-butyl]-tetrahydro-pyrrolo[1,2-c]pyrimidine-1,3-dione oxalate]	–	–	–	no detectable agonist activity	–	antagonistic activity	–	1060	5.4	0.06	0.6	0.49 ± 0.08
O=C1C[C@@H]2CCCN2C(=O)N1CCCCN1CCN(c2cccc3sccc23)CC1 [Example 4, 2-[4-(4-Benzo[b]thiophen-4-yl-piperazin-1-yl)-butyl]-tetrahydro-pyrrolo[1,2-c]pyrimidine-1,3-dione oxalate]	–	–	–	–	–	–	–	228	1.83	0.195	–	2.14 ± 0.88
